Measurements: patent publication US20230114241A1, “METHODS OF TREATING EPILEPSY USING THE SAME” (Trevena, Inc., priority 2019, published 2023)

Tests used:
Assay type in all cases: cell-based
[1] = target: sphingosine-1-phosphate receptor 5 (S1P5) (Homo sapiens, UniProt Q9H228); assay: Selectivity: inhibition of cAMP production (HTRF), S1P5 CHO-K1 cells; details: for Emax: CHO-K1, efficacy normalized to maximal efficacy of fimgolimod, read-out: hS1P5 cAMP SPAN; for EC50: inhibition of cAMP production, read-out: hS1P5 cAMP pEC50 (converted)
Sequence of sphingosine-1-phosphate receptor 5 (S1P5) (Q9H228 whole entry): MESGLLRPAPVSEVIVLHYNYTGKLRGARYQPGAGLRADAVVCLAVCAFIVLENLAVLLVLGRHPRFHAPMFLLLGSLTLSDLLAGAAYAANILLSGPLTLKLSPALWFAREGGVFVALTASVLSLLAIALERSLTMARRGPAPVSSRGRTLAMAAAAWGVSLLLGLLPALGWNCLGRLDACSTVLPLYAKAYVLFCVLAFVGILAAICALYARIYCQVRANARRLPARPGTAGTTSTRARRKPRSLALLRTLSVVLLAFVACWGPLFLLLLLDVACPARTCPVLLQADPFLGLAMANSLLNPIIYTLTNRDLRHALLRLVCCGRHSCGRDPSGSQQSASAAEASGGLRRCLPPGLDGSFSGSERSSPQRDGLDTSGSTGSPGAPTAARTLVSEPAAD
Procedure: (§1) Cell Culturing and Assay Plating Cell lines were cultured in AssayComplete™ Media 6 (DiscoverX Corporation, Cat #: 920018GF2) at 37° C. and 5% CO2 in a humidified CO2 and temperature-controlled incubator. To begin assay plating, cells were washed with Dulbecco's phosphate buffered saline (CellGro, Cat #: 21-031-CV) and lifted from the culturing flask by incubation (37° C., 5 min) with CellStripper (Cellgro, Cat #: 25-056-CI). […] Plated cells were incubated overnight at 37° C. and 5% CO2 in a humidified CO2 and temperature-controlled incubator. Detecting Inhibition of cAMP Production
(§2) S1P3 and S1P5 Agonist-promoted G-protein responses were determined by measuring changes in intracellular cAMP using the HTRF® cAMP HiRange kit (CisBio, Cat #: 62AM6PEJ) based on time-resolved fluorescence resonance energy transfer (TR-FRET) technology. […] Following a 30-minute room temperature incubation the components of the cAMP HiRange kit were added as per the manufacturer's instructions. After an hour incubation at room temperature, plates were analyzed by a BMG PheraStar microplate reader.
(§3) These values are normalized to fimgolimod, a known agonist of the sphingosine-1-phosphate 3 and 5 receptor or CYM5520, a known agonist of the sphingosine-1-phosphate 2 receptor. The tables also include potency values (pEC50) for modulating discrete receptor-mediated activities (inhibition of cAMP production or inositol monophosphate accumulation).

[2] = target: T1, human sphingosine-1-phosphate receptor 1 (S1P1) (Homo sapiens, UniProt P21453); assay: β-Arrestin2 recruitment assay (PathHunter), S1P1 CHO-K1 cells; details: for Emax: efficacy normalized to maximum efficacy of fingolimod, read-out: hS1P1 B-arrestin2 SPAN; for EC50: read-out: hS1P1 B-arrestin2 pEC50 (converted)
Method in brief: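 CHO-K1 cells co-expressing EA-β-arrestin2 and ProLink-tagged human S1P1 plated overnight, then stimulated 60 min at 37 °C. Enzyme-fragment complementation (β-galactosidase) detected after 1 h at room temperature by luminescence; values normalized to fingolimod.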
Target sequence in this assay (P21453 whole entry, the tested form may be a part): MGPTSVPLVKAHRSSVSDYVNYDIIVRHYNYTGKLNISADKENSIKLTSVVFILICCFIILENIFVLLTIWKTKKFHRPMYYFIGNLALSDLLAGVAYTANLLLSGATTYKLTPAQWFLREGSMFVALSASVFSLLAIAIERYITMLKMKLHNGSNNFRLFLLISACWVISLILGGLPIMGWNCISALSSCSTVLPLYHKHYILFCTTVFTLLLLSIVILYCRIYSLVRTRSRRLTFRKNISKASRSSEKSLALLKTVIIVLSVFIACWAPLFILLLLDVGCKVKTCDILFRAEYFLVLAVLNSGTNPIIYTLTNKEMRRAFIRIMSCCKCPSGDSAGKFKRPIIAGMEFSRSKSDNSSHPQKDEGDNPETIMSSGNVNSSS
Target sequence in this assay (P32121 whole entry partner, the tested form may be a part): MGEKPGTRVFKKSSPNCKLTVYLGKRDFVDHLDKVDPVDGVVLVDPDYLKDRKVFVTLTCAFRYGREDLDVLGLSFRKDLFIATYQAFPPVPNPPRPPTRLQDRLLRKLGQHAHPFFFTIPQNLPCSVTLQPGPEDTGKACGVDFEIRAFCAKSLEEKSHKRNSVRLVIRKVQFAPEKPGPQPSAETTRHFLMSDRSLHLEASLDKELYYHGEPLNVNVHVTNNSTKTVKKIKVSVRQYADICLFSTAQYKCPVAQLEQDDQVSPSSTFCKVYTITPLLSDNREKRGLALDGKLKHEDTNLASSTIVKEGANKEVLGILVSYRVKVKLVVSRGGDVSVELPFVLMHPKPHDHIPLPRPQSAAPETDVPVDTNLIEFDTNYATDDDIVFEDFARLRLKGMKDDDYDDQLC

[3] = target: T1, human sphingosine-1-phosphate receptor 1 (S1P1); assay: Inhibition of cAMP production (HTRF cAMP HiRange), S1P1 CHO-K1 cells; details: for Emax: CHO-K1, efficacy normalized to maximum efficacy of fingolimod, read-out: hS1P1 CAMP SPAN; for EC50: read-out: hS1P1 CAMP pEC50 (converted)
Method in brief: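 CHO-K1 cells co-expressing human S1P1 (C-terminal ProLink tag) and EA-β-arrestin2, plated overnight; after 30 min compound incubation at 37 °C, intracellular cAMP measured by HTRF TR-FRET following 1 h at room temperature. Values normalized to fingolimod.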
Target sequence in this assay (P21453 whole entry, the tested form may be a part): as the sequence (P21453 whole entry, the tested form may be a part) above

[4] = target: human sphingosine-1-phosphate receptor 3 (S1P3) (Homo sapiens, UniProt Q99500); assay: Selectivity: inhibition of cAMP production (HTRF), S1P3 CHO-K1 cells; details: for Emax: CHO-K1, efficacy normalized to maximal efficacy of fimgolimod, read-out: hS1P3 cAMP SPAN; for EC50: inhibition of cAMP production, read-out: hS1P3 cAMP pEC50 (converted)
Sequence of human sphingosine-1-phosphate receptor 3 (S1P3) (Q99500 whole entry): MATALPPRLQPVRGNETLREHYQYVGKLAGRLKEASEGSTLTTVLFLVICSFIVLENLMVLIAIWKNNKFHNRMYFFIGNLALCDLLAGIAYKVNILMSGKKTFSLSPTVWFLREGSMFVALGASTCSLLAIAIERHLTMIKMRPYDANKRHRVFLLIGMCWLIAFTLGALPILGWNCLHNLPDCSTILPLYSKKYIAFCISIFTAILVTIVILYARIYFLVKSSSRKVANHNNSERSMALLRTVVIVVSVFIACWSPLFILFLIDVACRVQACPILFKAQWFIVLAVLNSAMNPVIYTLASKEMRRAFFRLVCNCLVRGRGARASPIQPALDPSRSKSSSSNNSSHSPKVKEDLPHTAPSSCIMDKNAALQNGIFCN
Procedure: as §1, §2, §3

[5] = target: human sphingosine-1-phosphate receptor 2 (S1P2) (Homo sapiens, UniProt O95136); assay: Selectivity: inositol monophosphate production (IP-one), S1P2 CHO-K1 cells; details: for Emax: CHO-K1, efficacy normalized to maximal efficacy of CYM5520, read-out: hS1P2 IP-one SPAN; for EC50: inositol monophosphate accumulation, read-out: hS1P2 IP-one pEC50 (converted)
Sequence of human sphingosine-1-phosphate receptor 2 (S1P2) (O95136 whole entry): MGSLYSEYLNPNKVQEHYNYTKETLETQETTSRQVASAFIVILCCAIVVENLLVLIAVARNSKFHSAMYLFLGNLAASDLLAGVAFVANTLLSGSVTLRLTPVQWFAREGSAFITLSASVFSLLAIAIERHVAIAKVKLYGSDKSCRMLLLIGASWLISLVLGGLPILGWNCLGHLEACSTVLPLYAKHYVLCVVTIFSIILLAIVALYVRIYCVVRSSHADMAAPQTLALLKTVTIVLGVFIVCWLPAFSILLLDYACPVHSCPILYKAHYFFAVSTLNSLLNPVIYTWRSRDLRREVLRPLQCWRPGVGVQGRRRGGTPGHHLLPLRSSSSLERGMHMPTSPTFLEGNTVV
Procedure: as §1
S1P2 Agonist-promoted G-protein responses were determined by measuring changes in intracellular inositol monophosphate using the IP-one TB kit (CisBio, Cat #: 62IPAPEJ) based on time-resolved fluorescence resonance energy transfer (TR-FRET) technology. AssayComplete™ Cell Plating 2 Reagent was removed and replaced with 1× IP-one stimulation buffer (as per manufacturer's instructions) along with test or control compounds at the desired concentrations.
Following a 60-minute incubation at 37° C. and 5% CO2 in a humidified CO2 and temperature-controlled incubator, the components of the IP-one TB kit were added as per the manufacturer's instructions. After an hour incubation at room temperature, plates were analyzed by a BMG PheraStar microplate reader.
as §3

[6] = inhibition of cAMP production, S1P1
[7] = CHO-K1, β-arrestin2 recruitment
[8] = β-arrestin2 recruitment, potency
[9] = inhibition of cAMP production, potency

Molecule `COc1ccccc1-c1nnc(-c2ccc3c(c2)oc(=O)n3C)o1` [Compound 406, 6-[5-(2-methoxy-phenyl)-1,3,4-oxadiazol-2-yl]-3-methyl-2,3-dihydro-1,3-benzoxazol-2-one] has an Emax [1] of under 50%, an EC50 [1] of over 10 µM and an Emax ([2]; CHO-K1) of over 75%. It also gave an EC50 ([2]; β-arrestin2 recruitment, S1P1) of under 10 µM, an Emax [3] of over 75% and an EC50 [3, 6] of under 0.316 µM. For the same molecule, the Emax [4] was under 50%, the EC50 [4] was over 10 µM and the Emax [5] was under 50%. It also gave an EC50 [5] of over 10 µM.

`C=CCNc1ccc(-c2nc(-c3cn[nH]c3)no2)cc1C#N` [Compound 252, 5-(3-(1H-pyrazol-4-yl)-1,2,4-oxadiazol-5-yl)-2-(allyl-amino)benzonitrile] gave an Emax [1] of over 50%, an EC50 [1] of under 10 µM and an Emax [2, 7] of over 75%. For the same molecule, the Emax ([3]; inhibition of cAMP production) was over 75%, the Emax [4] was under 50% and the EC50 [4] was under 10 µM. It also gave an Emax [5] of under 50% and an EC50 [5] of under 10 µM.

`CCC1(CC)CC(=O)c2cc(-c3nc(-c4ccccc4Cl)no3)ccc2O1` [Compound 221, 6-(3-(2-chlorophenyl)-1,2,4-oxadiazol-5-yl)-2,2-diethylchroman-4-one] gave an Emax [1] of under 50%, an EC50 [1] of under 10 µM and an Emax [2, 7] of over 75%. For the same molecule, the EC50 [2, 8] was under 10 µM, the Emax ([3]; inhibition of cAMP production) was over 75% and the EC50 [3, 9] was under 0.316 µM. It also gave an Emax [4] of under 50%, an EC50 [4] of under 10 µM and an Emax [5] of under 50%. For the same molecule, the EC50 [5] was over 10 µM.

For `COc1ccccc1-c1nc(-c2ccc3c(ccn3C(C)C)c2)no1` [Compound 398, 3-(1-isopropyl-1H-indol-5-yl)-5-(2-methoxyphenyl)-1,2,4-oxadiazole], the Emax [1] was under 50%, the EC50 [1] was over 10 µM and the Emax ([2]; CHO-K1) was over 75%. The EC50 ([2]; β-arrestin2 recruitment, S1P1) was under 10 µM, the Emax [3] was over 75% and the EC50 [3, 6] was under 0.316 µM. It also gave an Emax [4] of under 50%, an EC50 [4] of over 10 µM and an Emax [5] of under 50%. For the same molecule, the EC50 [5] was over 10 µM.

For `CCC1(CC)CC(=O)c2cc(-c3nc(-c4ccc5[nH]c(=O)oc5c4)no3)ccc2O1` [Compound 445, 6-(5-(2,2-diethyl-4-oxochroman-6-yl)-1,2,4-oxadiazol-3-yl)benzo[d]oxazol-2(3H)-one], the Emax ([2]; CHO-K1) was over 75%, the EC50 ([2]; β-arrestin2 recruitment, S1P1) was under 10 µM and the Emax [3] was over 75%. It also gave an EC50 [3, 6] of under 0.316 µM, an Emax [4] of under 50% and an EC50 [4] of over 10 µM. The Emax [5] was under 50% and the EC50 [5] was under 10 µM.

For `CC(C)Nc1ccc(-c2nc(-c3ccc4oc(=O)[nH]c4c3)no2)cc1C#N` [Compound 422, 2-(isopropylamino)-5-(3-(2-oxo-2,3-dihydrobenzo[d]oxazol-5-yl)-1,2,4-oxadiazol-5-yl)benzonitrile], the Emax ([2]; CHO-K1) was over 75%, the EC50 ([2]; β-arrestin2 recruitment, S1P1) was under 10 µM and the Emax [3] was over 75%. The EC50 [3, 6] was under 0.316 µM, the Emax [4] was under 50% and the EC50 [4] was under 10 µM. It also gave an Emax [5] of under 50% and an EC50 [5] of under 10 µM.

`CC(C)Nc1ccc(-c2nc(-c3ccc4c(c3)NC(=O)C4)no2)cc1C#N` [Compound 496, 2-(isopropylamino)-5-(3-(2-oxoindolin-6-yl)-1,2,4-oxadiazol-5-yl)benzonitrile] gave an Emax ([2]; CHO-K1) of over 75%, an EC50 ([2]; β-arrestin2 recruitment, S1P1) of under 10 µM and an Emax [3] of over 75%. The EC50 [3, 6] was under 0.316 µM, the Emax [4] was under 50% and the EC50 [4] was over 10 µM. It also gave an Emax [5] of under 50% and an EC50 [5] of over 10 µM.

In the case of `O=C1c2cc(-c3nc(-c4cccnc4)no3)ccc2OC(CO)(CO)C1Br` (stereo not drawn) [Compound 479, 3-bromo-2,2-bis(hydroxy-methyl)-6-[3-(pyridin-3-yl)-1,2,4-oxadiazol-5-yl]-3,4-dihydro-2H-1-benzopyran-4-one], the Emax ([2]; CHO-K1) is reported as under 75%, the EC50 ([2]; β-arrestin2 recruitment, S1P1) is reported as over 10 µM and the Emax [3] is reported as under 75%. For the same molecule, the EC50 [3, 6] was over 0.316 µM.

`Cc1ccccc1-c1nc(-c2ccc3c(c2)nnn3CC(C)(C)CO)no1` [Compound 505, 2,2-dimethyl-3-(5-(5-(o-tolyl)-1,2,4-oxadiazol-3-yl)-1H-benzo[d][1,2,3]triazol-1-yl)propan-1-ol] was tested, and the Emax ([2]; CHO-K1) was over 75%, the EC50 ([2]; β-arrestin2 recruitment, S1P1) was over 10 µM and the Emax [3] was under 75%. The EC50 [3, 6] was over 0.316 µM.

Molecule `CC(C)n1nnc2cc(-c3noc(-c4ccc(-c5ccccc5)cc4)n3)ccc21` [Compound 248, 5-([1,1′-biphenyl]-4-yl)-3-(1-isopropyl-1H-benzo[d][1,2,3]triazol-5-yl)-1,2,4-oxadiazole] has an Emax [2, 7] of under 75%, an EC50 [2, 8] of over 10 µM and an Emax ([3]; inhibition of cAMP production) of under 75%. The EC50 [3, 9] was over 0.316 µM.

With `COc1ccc(-c2noc(-c3ccc4c(c3)nnn4CC(C)(C)O)n2)c(C)c1` [Compound 647, 1-{5-[3-(4-methoxy-2-methylphenyl)-1,2,4-oxadiazol-5-yl]-1H-1,2,3-benzotriazol-1-yl}-2-methylpropan-2-ol] the “hS1P1 B-arrestin2 pEC50” value ([2]; β-arrestin2 recruitment, S1P1) was over 5 and the EC50 [3, 6] was under 0.316 µM.

In the case of `CC(C)n1ccc2cc(-c3noc(-c4ccncc4F)n3)ccc21` [Compound 399, 5-(3-fluoropyridin-4-yl)-3-(1-isopropyl-1H-indol-5-yl)-1,2,4-oxadiazole], the Emax ([2]; CHO-K1) is reported as under 75%, the EC50 ([2]; β-arrestin2 recruitment, S1P1) is reported as under 10 µM and the Emax [3] is reported as over 75%. It also gave an EC50 [3, 6] of under 0.316 µM.

With `Fc1cc(-c2noc(-c3ccc4c(c3)nnn4C3CCCC3)n2)ccc1C(F)(F)F` [Compound 1, 1-cyclopentyl-5-{3-[3-fluoro-4-(trifluoro-methyl)phenyl]-1,2,4-oxadiazol-5-yl}-1H-1,2,3-benzotriazole] the Emax [2, 7] was under 75%, the EC50 [2, 8] was over 10 µM and the Emax ([3]; inhibition of cAMP production) was under 75%. The EC50 [3, 9] was over 0.316 µM.

In the case of `Cc1nc2cc(-c3nnc(-c4ccc(NC(C)C)c(C#N)c4)o3)ccc2[nH]1` [Compound 560, 5-[5-(2-methy1-1H-1,3-benzodiazol-5-yl)-1,3,4-oxadiazol-2-yl]-2-[(propan-2-yl)amino]benzonitrile], the Emax ([2]; CHO-K1) is reported as over 75%, the EC50 ([2]; β-arrestin2 recruitment, S1P1) is reported as under 10 µM and the Emax [3] is reported as over 75%. It also gave an EC50 [3, 6] of under 0.316 µM.

`CCC1(CC)CC(=O)c2cc(-c3nc(-c4cnccc4C)no3)ccc2O1` [Compound 549, 2,2-diethyl-6-(3-(4-methylpyridin-3-yl)-1,2,4-oxadiazol-5-yl)chroman-4-one] gave an Emax ([2]; CHO-K1) of over 75%, an EC50 ([2]; β-arrestin2 recruitment, S1P1) of under 10 µM and an Emax [3] of over 75%. It also gave an EC50 [3, 6] of under 0.316 µM.

`COc1ccccc1-c1nsc(-c2ccc3c(c2)nnn3C(C)C)n1` [Compound 213, 5-[3-(2-methoxy-phenyl)-1,2,4-thiadiazol-5-yl]-1-(propan-2-yl)-1H-1,2,3-benzotriazole] showed an Emax [2, 7] of over 75%, an EC50 [2, 8] of over 10 µM and an Emax ([3]; inhibition of cAMP production) of over 75%. For the same molecule, the EC50 [3, 9] was over 0.316 µM.

For `CC(C)Nc1ccc(-c2nnc(-c3ccc4c(c3)CCC(=O)N4)o2)cc1C#N` [Compound 473, 5-[5-(2-oxo-1,2,3,4-tetrahydroquinolin-6-yl)-1,3,4-oxadiazol-2-yl]-2-[(propan-2-yl)amino]benzonitrile], the Emax ([2]; CHO-K1) was over 75%, the EC50 ([2]; β-arrestin2 recruitment, S1P1) was under 10 µM and the Emax [3] was over 75%. For the same molecule, the EC50 [3, 6] was under 0.316 µM.

`Cc1ccccc1-c1noc(-c2ccc3c(c2)nnn3C2CCC2)n1` [Compound 306, 1-cyclobutyl-5-[3-(2-methylphenyl)-1,2,4-oxadiazol-5-yl]-1H-1,2,3-benzotriazole] showed an Emax [2, 7] of under 75%, an EC50 [2, 8] of under 10 µM and an Emax ([3]; inhibition of cAMP production) of over 75%. For the same molecule, the EC50 [3, 9] was under 0.316 µM.

Molecule `COc1ccc(-c2nc(-c3ccc4c(c3)nnn4CC(C)(C)CO)no2)c(C)c1` [Compound 523, 3-(5-(5-(4-methoxy-2-methylphenyl)-1,2,4-oxadiazol-3-yl)-1H-benzo[d][1,2,3]triazol-1-yl)-2,2-dimethyl-propan-1-ol] has an Emax ([2]; CHO-K1) of over 75%, an EC50 ([2]; β-arrestin2 recruitment, S1P1) of over 10 µM and an Emax [3] of over 75%. For the same molecule, the EC50 [3, 6] was over 0.316 µM.
